Experimental data reported in patent publication US20240116933A1, “INDAZOLE AND PYRAZOLOPYRIDINE COMPOUNDS AS INHIBITORS OF NLRP3 INFLAMMASOME” (BioAge Labs, Inc., priority 2022, published 2024).

Molecular target: T1, NLRP3 inflammasome (Homo sapiens, UniProt Q96P20)
T1 construct: endogenous in cells; host or cells: THP-1 cells (PMA-differentiated, LPS-primed, nigericin-stimulated)
Experiment: THP-1 Cell-Based NLRP3 Activation Assay
Details: THP-1 cells, PMA, 100 ng/mL LPS 3 hrs, 30 min pre-incubation with test compound, 10 μM nigericin 1 hr
Method: THP-1 cells are cultured in complete media (CM) until they reach logarithmic growth and achieve a viability >90%. CM is composed of RPMI-1640 (+Glutamax)/10% fetal bovine serum/55 μM β-mercaptoethanol/pen/strep. Cells are spun down and resuspended to 1,000,000 cells/mL in CM containing either 20 nM or 500 nM PMA. 150,000 cells […] are then added to each well of a 96-well TC plate and incubated for either 24 hr or 3 hr, respectively, in a standard cell culture incubator (37° C.; 5% CO2). After this incubation, the plate is tilted and media carefully removed. 200 μL of CM containing 100 ng/mL LPS is then added to the wells and the cells incubated an additional 3 hrs. The media is again removed and replaced with Opti-Mem medium containing pre-determined dilutions of test compounds in replicate wells. After a 30 min pre-incubation with test compound, 10 μM nigericin (final concentration) in Opti-Mem medium with the corresponding concentration of compound is added to the wells for an additional 1 hr. Positive control wells contain 10 μM nigericin in Opti-Mem in the absence of test compound, while negative control wells contain Opti-Mem only. […] Once supernatants are removed, the relative viability of adherent cells in the 96-well TC plate are determined using a CellTiter-Glo® luminescent cell viability assay (Promega).

T1 sequence (Q96P20 whole entry): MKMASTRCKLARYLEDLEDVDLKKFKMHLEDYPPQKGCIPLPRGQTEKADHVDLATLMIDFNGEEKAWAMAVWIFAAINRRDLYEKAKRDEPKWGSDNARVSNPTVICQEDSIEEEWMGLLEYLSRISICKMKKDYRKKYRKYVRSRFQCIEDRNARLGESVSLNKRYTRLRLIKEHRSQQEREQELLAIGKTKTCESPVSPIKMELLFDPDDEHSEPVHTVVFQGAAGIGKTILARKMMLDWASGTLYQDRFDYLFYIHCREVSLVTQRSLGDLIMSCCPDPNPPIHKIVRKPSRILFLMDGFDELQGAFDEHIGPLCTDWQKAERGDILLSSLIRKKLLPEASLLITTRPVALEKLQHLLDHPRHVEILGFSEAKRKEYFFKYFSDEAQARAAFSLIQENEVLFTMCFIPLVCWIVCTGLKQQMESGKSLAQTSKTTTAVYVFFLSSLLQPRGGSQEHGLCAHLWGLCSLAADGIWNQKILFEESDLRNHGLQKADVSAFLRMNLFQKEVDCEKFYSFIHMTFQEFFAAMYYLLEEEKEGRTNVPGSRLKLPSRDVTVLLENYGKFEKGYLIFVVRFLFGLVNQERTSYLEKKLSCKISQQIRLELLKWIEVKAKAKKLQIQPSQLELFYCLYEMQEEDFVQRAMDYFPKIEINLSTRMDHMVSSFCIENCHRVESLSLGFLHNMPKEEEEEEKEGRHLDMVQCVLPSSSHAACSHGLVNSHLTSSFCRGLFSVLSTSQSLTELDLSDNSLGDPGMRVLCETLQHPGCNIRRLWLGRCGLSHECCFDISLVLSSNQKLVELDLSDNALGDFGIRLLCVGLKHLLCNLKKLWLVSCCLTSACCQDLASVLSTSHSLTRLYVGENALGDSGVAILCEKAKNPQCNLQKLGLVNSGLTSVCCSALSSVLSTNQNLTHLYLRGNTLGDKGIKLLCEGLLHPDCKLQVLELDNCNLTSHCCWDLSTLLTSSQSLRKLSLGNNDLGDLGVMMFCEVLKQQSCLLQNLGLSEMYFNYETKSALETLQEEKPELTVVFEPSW

SMILES | IC50 [nM]
CC(O)c1ncc(CN(C)C(=O)c2ccc(-c3cccc(Cl)c3)c(OC3CC3)c2)c2[nH]ncc12 (stereo not drawn) [Compound 101] | < 1000
CN(Cc1cnc(CF)c2cn[nH]c12)C(=O)c1cc(F)c(-c2cccc(Cl)c2)c(OC2CC2)c1 [Compound 071] | < 1000
CN(Cc1cnc(CO)c2cn[nH]c12)C(=O)c1ccc(-c2cccc(Cl)c2)c(OC2COC2)c1 [Compound 108] | < 1000
CCOc1cc(C(=O)N(C)Cc2cnc(CO)c3cn[nH]c23)cc(F)c1-c1cccs1 [Compound 106] | < 1000
CCOc1cc(C(=O)N(C)Cc2cnc(CO)c3cn[nH]c23)cc(F)c1-c1cc(F)cs1 [Compound 093] | < 1000
CCOc1cc(C(=O)N(C)Cc2cnc(C(C)O)c3cn[nH]c23)cc(Cl)c1-c1cccc(F)c1 (stereo not drawn) [Compound 156] | < 50000
CCOc1cc(C(=O)N(C)C(C)c2cnc(CF)c3cn[nH]c23)ccc1-c1cccc(F)c1 (stereo not drawn) [Compound 055] | < 1000
Cc1ncc(CN(C)C(=O)c2cc(F)c(-c3cccc(C#N)c3)c(OC3CC3)c2)c2[nH]ncc12 [Compound 065] | < 1000
CCOc1cc(C(=O)N(C)Cc2cc(O)cc3cn[nH]c23)cc(F)c1-c1cccc(Cl)c1 [Compound 178] | < 1000
CCOc1cc(C(=O)N(C)Cc2cnc(C(C)O)c3cn[nH]c23)cc(F)c1-c1cccc(F)c1 (stereo not drawn) [Compound 118] | < 1000
CCOc1cc(C(=O)N(C)Cc2cnc(C(C)O)c3cn[nH]c23)cc(Cl)c1-c1cccc(Cl)c1 (stereo not drawn) [Compound 166] | < 1000
C[C@@H](c1cncc2cn[nH]c12)N(C)C(=O)c1ccc(-c2cccc(F)c2)c(OC2CC2)c1 [Compound 052] | < 1000
CCN(Cc1cnc(CO)c2cn[nH]c12)C(=O)c1cc(F)c(-c2cccc(C#N)c2)c(OC2CC2)c1 [Compound 087] | < 1000
CCOc1cc(C(=O)N(C)Cc2cnc(CO)c3cn[nH]c23)cc(F)c1-c1cc(C#N)cs1 [Compound 073] | < 1000
CCOc1cc(C(=O)N(C)Cc2cnc(C(C)O)c3cn[nH]c23)ccc1-c1cccc(Cl)c1 (stereo not drawn) [Compound 030] | < 1000
CCOc1cc(C(=O)N(C)[C@H](C)c2c(C)ncc3cn[nH]c23)ccc1-c1cccc(F)c1 [Compound 044] | < 50000
CCOc1cc(C(=O)N(C)[C@H](C)c2cc(F)cc3cn[nH]c23)ccc1-c1cccc(F)c1 [Compound 043] | < 50000
CCOc1cc(C(=O)N(C)Cc2cnc(C(C)O)c3cn[nH]c23)cc(F)c1-c1cc(F)cc(C#N)c1 (stereo not drawn) [Compound 076] | < 1000
CCN(Cc1cnc(CO)c2cn[nH]c12)C(=O)c1cc(F)c(-c2cccc(Cl)c2)c(OC2CC2)c1 [Compound 092] | < 1000
CCOc1cc(C(=O)N(C)[C@@H](C)c2cnc(CO)c3cn[nH]c23)ccc1-c1cccc(F)c1 [Compound 160] | < 1000
CCOc1cc(C(=O)N(C)Cc2c(C)c(OC)cc3cn[nH]c23)ccc1-c1cccc(F)c1 [Compound 167] | < 1000
CCOc1nc(C(=O)N(C)Cc2cnc(CF)c3cn[nH]c23)ccc1-c1cccc(C(F)(F)F)c1 [Compound 046] | < 1000

SMILES | IC50 [nM]
CCOc1cc(C(=O)N(C)Cc2cnc(CO)c3cn[nH]c23)cc(F)c1-c1cc(F)cc(F)c1 [Compound 131] | < 1000
CC(C)Oc1cc(C(=O)N(C)Cc2cnc(CO)c3cn[nH]c23)ccc1-c1cccc(F)c1 [Compound 134] | < 1000
CCOc1cc(C(=O)N(CC)Cc2cnc(C(C)O)c3cn[nH]c23)cc(F)c1-c1cccc(F)c1 (stereo not drawn) [Compound 174] | < 1000
CCOc1cc(C(=O)N(C)Cc2cnc(C)c3cn[nH]c23)ccc1-c1cc(C#N)cs1 [Compound 153] | < 10000
CCN(Cc1cnc(CO)c2cn[nH]c12)C(=O)c1ccc(-c2cccc(F)c2)c(OC2CC2)c1 [Compound 100] | < 1000
CN(Cc1cnc(CF)c2cn[nH]c12)C(=O)c1cc(F)c(-c2cc(F)cs2)c(OC2CC2)c1 [Compound 181] | < 1000
CCOc1cc(C(=O)N(C)Cc2cccc3[nH]ncc23)ccc1-c1cccc(C#N)c1 [Compound 126] | < 1000
CCOc1cc(C(=O)N(C)[C@@H](C)c2c(C)ncc3cn[nH]c23)ccc1-c1cccc(F)c1 [Compound 045] | < 10000
CCOc1cc(C(=O)N(C)Cc2cnc(CO)c3cn[nH]c23)cc(F)c1-c1ccsc1 [Compound 107] | < 1000
Cc1ncc2cn[nH]c2c1CN(C)C(=O)c1cc(F)c(-c2cccc(Cl)c2)c(OC2CC2)c1 [Compound 068] | < 1000
CCOc1cc(C(=O)N(C)Cc2c(F)c(O)cc3cn[nH]c23)ccc1-c1cccc(F)c1 [Compound 148] | < 1000
CCCOc1cc(C(=O)N(C)Cc2cnc(CO)c3cn[nH]c23)cc(F)c1-c1cccc(F)c1 [Compound 138] | < 1000
CCOc1cc(C(=O)N(C)Cc2cnc(C(C)O)c3cn[nH]c23)cc(F)c1-c1ccsc1 (stereo not drawn) [Compound 088] | < 1000
CCOc1cc(C(=O)N(C)Cc2c(C)nc(CF)c3cn[nH]c23)ccc1-c1cccc(F)c1 [Compound 173] | < 1000
CN(Cc1cnc(CO)c2cn[nH]c12)C(=O)c1ccc(-c2cccc(F)c2)c(OC2COC2)c1 [Compound 151] | < 10000
Cc1nc(CO)c2cn[nH]c2c1CN(C)C(=O)c1ccc(-c2cccc(C#N)c2)c(OC2CC2)c1 [Compound 078] | < 1000
CCOc1cc(C(=O)N(C)Cc2cccc3[nH]ncc23)ccc1-c1cccc(F)c1 [Compound 129] | < 10000
Cc1ncc(CN(C)C(=O)c2cc(F)c(-c3cccc(F)c3)c(OC3CC3)c2)c2[nH]ncc12 [Compound 038] | < 1000
CCOc1cc(C(=O)N(C)Cc2c(C)nc(C)c3cn[nH]c23)ccc1-c1cccc(F)c1 [Compound 053] | < 1000
CCOc1cc(C(=O)N(C)Cc2cnc(CO)c3cn[nH]c23)ccc1-c1ccc(Cl)s1 [Compound 164] | < 1000
CCCOc1cc(C(=O)N(C)Cc2cnc(CO)c3cn[nH]c23)cc(F)c1-c1cc(F)cc(F)c1 [Compound 136] | < 1000
CCOc1cc(C(=O)N(C)C(C)c2ccc(F)c3cn[nH]c23)ccc1-c1cccc(F)c1 (stereo not drawn) [Compound 116] | < 1000

SMILES | IC50 [nM]
CCN(Cc1cnc(CO)c2cn[nH]c12)C(=O)c1ccc(-c2cccc(C#N)c2)c(OC2CC2)c1 [Compound 082] | < 50000
CC(C)Oc1cc(C(=O)N(C)Cc2cnc(CO)c3cn[nH]c23)ccc1-c1cccc(Cl)c1 [Compound 143] | < 1000
CCOc1cc(C(=O)N(C)Cc2cnc(C(C)O)c3cn[nH]c23)cc(F)c1-c1cc(C#N)cs1 (stereo not drawn) [Compound 072] | < 10000
CCOc1cc(C(=O)N(C)Cc2cnc(C(O)C(F)(F)F)c3cn[nH]c23)ccc1-c1cccc(F)c1 (stereo not drawn) [Compound 171] | < 1000
CN(Cc1cc(O)cc2cn[nH]c12)C(=O)c1cc(F)c(-c2ccccc2)c(OC2CC2)c1 [Compound 114] | < 1000
Cc1nc(C)c2cn[nH]c2c1CN(C)C(=O)c1cc(F)c(-c2cccc(F)c2)c(OC2CC2)c1 [Compound 119] | < 1000
CCOc1cc(C(=O)N(C)[C@H](C)c2ccc(CF)c3cn[nH]c23)ccc1-c1cccc(F)c1 (single isomer, unassigned) [Compound 169] | < 10000
CCOc1cc(C(=O)N(C)Cc2c(C)nc(CO)c3cn[nH]c23)ccc1-c1cccc(F)c1 [Compound 037] | < 1000
CCOc1cc(C(=O)N(C)[C@H](C)c2c(O)ccc3cn[nH]c23)ccc1-c1cccc(F)c1 (single isomer, unassigned) [Compound 184] | < 10000
CCOc1cc(C(=O)N(C)Cc2cnc(C)c3cn[nH]c23)ccc1-c1cccs1 [Compound 170] | < 1000
CCOc1cc(C(=O)N(C)[C@@H](C)c2cc(F)cc3cn[nH]c23)ccc1-c1cccc(F)c1 [Compound 042] | < 1000
CN(Cc1cnc(CO)c2cn[nH]c12)C(=O)c1cc(Cl)c(-c2cccc(F)c2)c(OC2CC2)c1 [Compound 162] | < 1000
CCOc1cc(C(=O)N(C)Cc2cnc(C(C)O)c3cn[nH]c23)ccc1-c1nc(Cl)cs1 (stereo not drawn) [Compound 158] | < 1000
CCOc1cc(C(=O)N(C)Cc2c(O)ccc3cn[nH]c23)ccc1-c1cccc(F)c1 [Compound 036] | < 1000
CCOc1cc(C(=O)N(C)Cc2c(C3CC3)ncc3cn[nH]c23)ccc1-c1cccc(F)c1 [Compound 011] | < 1000
CCOc1cc(C(=O)N(C)Cc2c(CO)ncc3cn[nH]c23)ccc1-c1cccc(F)c1 [Compound 039] | < 1000
CCOc1cc(C(=O)N(C)Cc2ccc(CO)c3cn[nH]c23)ccc1-c1cccc(F)c1 [Compound 066] | < 1000
CN(Cc1c(CO)ncc2cn[nH]c12)C(=O)c1cc(F)c(-c2cccc(F)c2)c(OC2CC2)c1 [Compound 139] | < 1000
CN(Cc1cc(O)cc2cn[nH]c12)C(=O)c1cc(F)c(-c2cccc(F)c2)c(OC2CC2)c1 [Compound 099] | < 1000
CCOc1cc(C(=O)N(C)Cc2cccc3cn[nH]c23)sc1-c1cccc(F)c1 [Compound 121] | < 1000
CCOc1cc(C(=O)N(C)Cc2cnc(C(C)O)c3cn[nH]c23)ccc1-c1cc(F)cc(F)c1 (stereo not drawn) [Compound 026] | < 1000
CCOc1cc(C(=O)N(C)Cc2cnc(C(C)O)c3cn[nH]c23)ccc1-c1ccccc1 (stereo not drawn) [Compound 031] | < 1000
